# Data published in PubChem BioAssay AID1033 (Sanford-Burnham Center for Chemical Genomics, 2008).
# Active and inactive are the calls of the source. No rule for the calls is given here.
# Biological target: Chaperone protein DnaK (Escherichia coli (strain K12)) (UniProt P0A6Y8)
# Test: binders of DnaK substrate-binding domain, biophysical, NMR, chaperone (AID 1033)
# Conditions: Purified DnaK SBD, NMR ligand binding
# Chain of Chaperone protein DnaK (Escherichia coli (strain K12)) (P0A6Y8 whole entry, looked up, the tested form may be a part): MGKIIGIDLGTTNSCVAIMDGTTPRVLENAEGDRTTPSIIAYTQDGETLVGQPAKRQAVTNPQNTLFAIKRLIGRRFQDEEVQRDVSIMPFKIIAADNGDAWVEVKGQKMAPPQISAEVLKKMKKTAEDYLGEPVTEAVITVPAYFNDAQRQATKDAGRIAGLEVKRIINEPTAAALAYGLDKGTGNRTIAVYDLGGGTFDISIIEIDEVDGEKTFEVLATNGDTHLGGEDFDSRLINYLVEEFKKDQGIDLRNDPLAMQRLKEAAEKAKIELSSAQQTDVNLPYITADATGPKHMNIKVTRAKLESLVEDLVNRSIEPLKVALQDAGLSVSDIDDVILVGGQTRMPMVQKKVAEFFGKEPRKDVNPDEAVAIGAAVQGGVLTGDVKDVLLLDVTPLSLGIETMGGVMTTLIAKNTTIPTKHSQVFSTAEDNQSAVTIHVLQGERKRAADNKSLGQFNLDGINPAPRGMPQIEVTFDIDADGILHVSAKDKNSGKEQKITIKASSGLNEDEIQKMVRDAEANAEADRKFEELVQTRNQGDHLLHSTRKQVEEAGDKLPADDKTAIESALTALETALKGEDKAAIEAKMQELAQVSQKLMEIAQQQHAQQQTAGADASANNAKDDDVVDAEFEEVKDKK
row,SMILES,Kd
1,Cc1cc(OC(=O)c2c(C)cc(O)cc2O)cc(O)c1C(=O)O,> 4 mM (inactive)
2,Cc1nnc(SCc2ccccc2)[nH]c1=O,> 4 mM (inactive)
3,Cc1noc(C)c1C(=O)NC1=NCCS1,> 4 mM (inactive)
4,Cc1nnc(-n2cnc3ccccc32)c2ccccc12,> 4 mM (inactive)
5,N#CCSc1nc(-c2ccccc2)cs1,> 4 mM (inactive)
6,CCOC(=O)c1c(C)nc2ccccn12,> 4 mM (inactive)
7,Cn1c(=O)c2[nH]cnc2n(-c2ccccc2)c1=O,> 4 mM (inactive)
8,COC(=O)c1scc(C)c1N,> 4 mM (inactive)
9,Cn1c(=O)c2ccccc2n(Cc2ccccc2F)c1=O,> 4 mM (inactive)
10,CCOC(=O)C1=C(O)CCN(C)C1,> 4 mM (inactive)
11,COC(=O)[C@@H]1C(O)CC[C@H]2CN3CCc4c([nH]c5ccccc45)[C@@H]3C[C@@H]21 (stereo not given in full),> 4 mM (inactive)
12,CCC(=O)n1nc(-c2ccco2)nc1N,> 4 mM (inactive)
13,Cc1nc2cc(Cl)ccc2n1CCO,> 4 mM (inactive)
14,Nc1nc2ccc(C(=O)O)cc2s1,> 4 mM (inactive)
15,CN1C(=O)c2ccc(N3CCCC3)cc2C1=O,> 4 mM (inactive)
16,Nc1cc(F)cc(F)c1,> 4 mM (inactive)
17,NC1=NC(=O)/C(=C\c2ccccc2)S1,> 4 mM (inactive)
18,O=C(O)CCCNC(=O)c1ccccc1C(=O)O,> 4 mM (inactive)
19,CC(=O)OCc1cc(=O)n(C)c(=O)n1C,> 4 mM (inactive)
20,CNC(=O)C(=O)NCc1ccc(C)cc1,> 4 mM (inactive)
21,Cc1cc(C(=O)c2c(C)nn(C)c2Cl)n(C)n1,> 4 mM (inactive)
22,Cc1ccc(S(=O)(=O)/N=C2\NC(=O)CS2)cc1,> 4 mM (inactive)
23,C=CCn1c(-c2ccc(O)cc2)n[nH]c1=S,> 4 mM (inactive)
24,COc1ccc2[nH]cc(CN(C)C)c2c1,> 4 mM (inactive)

row,SMILES,Kd
1,O=C(CC1Nc2ccccc2NC1=O)Nc1ccc(O)cc1 (stereo not given),> 4 mM (inactive)
2,Nc1cc(=O)[nH]c(=S)n1-c1ccc(F)cc1,> 4 mM (inactive)
3,COc1ccc(/C=C2/C(=O)N=C(N)N2C)cc1OC,> 4 mM (inactive)
4,CC(C)CCCC(C)[C@H]1CCC2C3CC=C4CC(=O)CC[C@]4(C)C3CC[C@@]21C (stereo not given in full),> 4 mM (inactive)
5,COc1ccc2c(c1)OCc1c-2oc2cc(OC)ccc12,> 4 mM (inactive)
6,O=C1NC(=S)NC(=O)C1=Cc1ccccc1O,> 4 mM (inactive)
7,CC(=O)Nc1ccc(N2CCOCC2)cc1,> 4 mM (inactive)
8,O=c1[nH]cc(S(=O)(=O)Nc2ccccc2)c(=O)[nH]1,> 4 mM (inactive)
9,C[C@H]1[C@H](C)CC[C@]2(C(=O)O)CC[C@]3(C)C(=CCC4[C@@]5(C)C[C@@H](O)[C@H](O)[C@@](C)(CO)C5[C@H](O)C[C@]43C)[C@H]12 (stereo not given in full),> 4 mM (inactive)
10,Cc1n[nH]c(=S)[nH]c1=O,> 4 mM (inactive)
11,CSc1nc(C)cc(Oc2ccc(=O)n(C)n2)n1,> 4 mM (inactive)
12,CC(NC(=O)c1ccco1)c1ccc2c(c1)OCCO2 (stereo not given),> 4 mM (inactive)
13,Cn1c(CSc2nc3ccccc3s2)n[nH]c1=S,> 4 mM (inactive)
14,COc1ccc(-c2nc(N)n(C(C)=O)n2)cc1,> 4 mM (inactive)
15,CCOC(=O)c1c(C)nc2cc(C)ccn12,> 4 mM (inactive)
16,COC(=O)c1cc(-c2c(C)nn(-c3ccccc3)c2C)n[nH]1,> 4 mM (inactive)
17,CN(C)C(=S)Nc1ccc([N+](=O)[O-])cc1,> 4 mM (inactive)
18,O=C(CSc1ncn[nH]1)c1ccccc1,> 4 mM (inactive)
19,Cc1cc(N)n(C2CCOC(C)(C)C2)n1 (stereo not given),> 4 mM (inactive)
20,OC1CC(c2ccccc2)NC2(CCCC2)C1 (stereo not given),> 4 mM (inactive)
21,N=c1n(N)c2ccccc2n1CCO,> 4 mM (inactive)
22,c1ccc2c(c1)[nH]c1cnccc12,> 4 mM (inactive)
23,O=C(Nc1ccccc1)N1CCOCC1,> 4 mM (inactive)
24,N#Cc1sc2nc3c(c(-c4cccnc4)c2c1N)CCC3,> 4 mM (inactive)

row,SMILES,Kd
1,CC(=O)n1nc(-c2cccnc2)nc1N,> 4 mM (inactive)
2,CN(C)c1ccc(CNn2cnnc2)cc1,> 4 mM (inactive)
3,Cc1cc(=O)c2c(O)c(C)c(O)cc2o1,> 4 mM (inactive)
4,COc1ccc(C(C)=O)c(OC)c1,> 4 mM (inactive)
5,Cc1oc(-c2ccccc2)nc1CCO,> 4 mM (inactive)
6,COC(=O)c1ccc(Cl)c(NC(C)=O)c1,> 4 mM (inactive)
7,Cc1nc(-c2ccc(CO)s2)cs1,> 4 mM (inactive)
8,CCc1c(C(=O)N2CCOCC2)csc1C,> 4 mM (inactive)
9,Cc1nnc(SCC(=O)N2CCc3ccccc32)s1,> 4 mM (inactive)
10,CC(=O)Nc1ccccc1-c1ccccc1NC(C)=O,> 4 mM (inactive)
11,O=P1(O)c2ccccc2Nc2ccccc21,> 4 mM (inactive)
12,O=C(Nc1nncs1)C1(c2ccccc2)CCCC1,> 4 mM (inactive)
13,Clc1ccccc1OCc1nc(-c2ccccn2)no1,> 4 mM (inactive)
14,O=C1C[C@@H](c2ccccc2)Oc2cc(O)cc(O)c21,> 4 mM (inactive)
15,C=C(C)C1(O)OC(=O)C=C1OC (stereo not given),> 4 mM (inactive)
16,OCC(O)C(O)C(O)CO (stereo not given),> 4 mM (inactive)
17,O=c1c(O)cccc2cc(O)c(O)c(O)c12,> 4 mM (inactive)
18,CC(=O)O[C@H]1CC[C@@]2(C)C(C[C@@H](OC(C)=O)[C@@]3(C)C4=CC(=O)O[C@@H](c5ccoc5)[C@]4(C)CCC23)C1(C)C (stereo not given in full),> 4 mM (inactive)
19,CC(=O)O[C@H]1C(=O)[C@@]2(C)C([C@H](OC(=O)c3ccccc3)[C@]3(O)C[C@H](OC(=O)[C@H](O)[C@@H](NC(=O)c4ccccc4)c4ccccc4)C(C)=C1C3(C)C)[C@]1(OC(C)=O)CO[C@@H]1C[C@@H]2O (stereo not given in full),> 4 mM (inactive)
20,Cn1cc(C(=O)N/N=C/c2ccccc2)ccc1=O,> 4 mM (inactive)
21,CSc1nc(-c2ccccc2)ccc1C(N)=O,> 4 mM (inactive)
22,Cc1nn2c(=O)nc3sc4c(c3c2[nH]c1=O)CCCC4,> 4 mM (inactive)
23,COc1ccc(NC2=NCC(C)S2)cc1 (stereo not given),> 4 mM (inactive)
24,O=C1CS/C(=N/N=C2CCCC2)N1,> 4 mM (inactive)

row,SMILES,Kd
1,Cc1nccc(-c2cccc(N)c2)n1,> 4 mM (inactive)
2,C=C(C)C1Cc2c(ccc(C(=O)O)c2O)O1 (stereo not given),> 4 mM (inactive)
3,Cc1cc(=O)n2[nH]c(COc3ccccc3)nc2n1,> 4 mM (inactive)
4,Nc1ncccc1OCc1ccccc1,> 4 mM (inactive)
5,OCC1CCCC1O (stereo not given),> 4 mM (inactive)
6,NC(=O)CCn1ncc2ccccc21,> 4 mM (inactive)
7,O=C(Nc1cccnc1)c1cccs1,> 4 mM (inactive)
8,NC(=O)CSc1ccc2nnc(-c3cccs3)n2n1,> 4 mM (inactive)
9,Cc1c(C(=O)Nc2ccccc2)sc(N)c1C(N)=O,> 4 mM (inactive)
10,Cc1cc(C(=O)NCc2cccs2)cs1,> 4 mM (inactive)
11,Cc1ccc(/C=C2/C(=O)N=C(N)N2C)s1,> 4 mM (inactive)
12,O=c1nc(NCc2ccco2)sc2ncccc12,> 4 mM (inactive)
13,c1ccc2c(c1)ncn2CCn1cnc2ccccc21,> 4 mM (inactive)
14,O=C(O)c1cc(O)c(O)c(O)c1,> 4 mM (inactive)
15,CS(=O)(=O)N1CCN(C(=O)c2ccccc2)CC1,> 4 mM (inactive)
16,CC1=C(/C=C/C(C)=C/C=C/C(C)=C/C=C/C=C(C)/C=C/C=C(C)/C=C/C2=C(C)CCCC2(C)C)C(C)(C)CCC1,> 4 mM (inactive)
17,CCOC(=O)c1cnc2cc(C)nn2c1C,> 4 mM (inactive)
18,COc1cc(S(=O)(=O)N(C)C)ccc1F,> 4 mM (inactive)
19,Fc1ccc(NC2=NCCS2)cc1Cl,> 4 mM (inactive)
20,NC(c1ccccc1)c1ccccn1 (stereo not given),> 4 mM (inactive)
21,COC(=O)NCc1cc2cc(Cl)ccc2[nH]1,> 4 mM (inactive)
22,COC(=O)CC1NC2CCCCC2NC1=O (stereo not given),> 4 mM (inactive)
23,Cc1cc(C)n(C/C=C/Cn2nc(C)cc2C)n1,> 4 mM (inactive)
24,COc1cc(/C=C2/NC(=S)NC2=O)cc(Cl)c1O,> 4 mM (inactive)

row,SMILES,Kd
1,Cc1cc(NC(=O)c2cccc(N3C(=O)CCC3=O)c2)no1,> 4 mM (inactive)
2,Cc1ccc(-n2ncc(C#N)c2/N=C/N(C)C)cc1,> 4 mM (inactive)
3,c1cncc(Nc2nc(-c3ccncc3)cs2)c1,> 4 mM (inactive)
4,Cc1ccc(C)c(C(=O)n2cnnc2N)c1,> 4 mM (inactive)
5,CN1CCC(NC(=O)c2cccnc2)CC1,> 4 mM (inactive)
6,CCCCN1C(=O)C2CC/C(=N/O)CC2C1=O (stereo not given),> 4 mM (inactive)
7,Nc1c(S(=O)(=O)c2ccccc2)csc1C(=O)O,> 4 mM (inactive)
8,Cc1ccc(C(=O)Nc2ccncc2)o1,> 4 mM (inactive)
9,OCC(O)Cc1ccc2c(c1)OCO2 (stereo not given),> 4 mM (inactive)
10,Cc1ccc(C(=O)n2cnnc2N)cc1C,> 4 mM (inactive)
11,OCc1ccccc1O[C@@H]1O[C@H](CO)[C@@H](O)[C@H](O)[C@H]1O,> 4 mM (inactive)
12,C[C@H]1[C@H](C)CC[C@]2(CO)CC[C@]3(C)C(=CCC4[C@@]5(C)CC[C@H](O)C(C)(C)C5CC[C@]43C)[C@H]12 (stereo not given in full),> 4 mM (inactive)
13,CC1(C)Cc2nc3n[nH]c(N)c3cc2CO1,> 4 mM (inactive)
14,O=C(Nc1nnc(-c2ccco2)o1)C1=COCCO1,> 4 mM (inactive)
15,O=C(O)CN(CCCc1ccccc1)CC(=O)O,> 4 mM (inactive)
16,Nc1c2c3c(sc2nc(=O)n1N)CCCC3,> 4 mM (inactive)
17,CC1CCN(C(=S)c2ccccc2O)CC1,> 4 mM (inactive)
18,Cc1nnsc1C(=O)O,> 4 mM (inactive)
19,c1ccc(Cn2c(Nn3cnnc3)nc3ccccc32)cc1,> 4 mM (inactive)
20,CN(C)S(=O)(=O)c1ccccc1C#N,> 4 mM (inactive)
21,O=C(O)C1CSC(c2ccccc2)N1 (stereo not given),> 4 mM (inactive)
22,Cc1ccc(-n2nnnc2SCC(N)=O)c(C)c1,> 4 mM (inactive)
23,O=C(CSc1ccnc(=O)[nH]1)NCc1ccccc1,> 4 mM (inactive)
24,COCC(=O)Nc1nc2ccc(C)cc2s1,> 4 mM (inactive)
